Patent publication US12540128B2, “Substituted pyridazinones as herbicides” (SYNGENTA CROP PROTECTION AG, priority 2019, dated 2026)

Assays:
Type in all cases: in vivo
Conditions in all cases: 250 g/ha, after 13 days
[1] = test system: Amaranthus retoflexus (AMARE); test: B1 Post-Emergence Efficacy Test 1
Protocol: (§1) Seeds of a variety of test species are sown in standard soil in pots:— Solanum nigrum (SOLNI), Amaranthus retoflexus (AMARE), Setaria faberi (SETFA), Echinochloa crus-galli (ECHCG), Ipomoea hederacea (IPOHE), Lolium perenne (LOLPE). After 8 days cultivation (post-emergence) under controlled conditions in a glasshouse (at 24/16° C., day/night; 14 hours light; 65% humidity), the plants are sprayed with an aqueous spray solution derived from the formulation of the technical active ingredient in acetone/water (50:50) solution containing 0.5% Tween 20 (polyoxyethylene sorbitan monolaurate, CAS RN 9005-64-5). Compounds are applied at 250 g/ha. The test plants are then grown in a glasshouse under controlled conditions in a glasshouse (at 24/16° C., day/night; 14 hours light; 65% humidity) and watered twice daily. After 13 days, the test is evaluated for the percentage damage caused to the plant. The biological activities are assessed on a five point scale (5=80-100%; 4=60-79%; 3=40-59%; 2=20-39%; 1=0-19%). A blank value in the table is indicative that the compound was not tested on that species.

[2] = test system: Echinochloa crus-galli (ECHCG); test: B1 Post-Emergence Efficacy Test 1
Protocol: as §1

[3] = test system: Ipomoea hederacea (IPOHE); test: B1 Post-Emergence Efficacy Test 1
Protocol: as §1

Lolium perenne (LOLPE) [4] = test: B1 Post-Emergence Efficacy Test 1
Protocol: as §1

Setaria faberi (SETFA) [5] = test: B1 Post-Emergence Efficacy Test 1
Protocol: as §1

Solanum nigrum (SOLNI) [6] = test: B1 Post-Emergence Efficacy Test 1
Protocol: as §1

[7] = test system: Amaranthus retoflexus (AMARE); test: B3 Pre-Emergence Efficacy Test 1
Protocol: (§2) Seeds of a variety of test species were sown in standard soil in pots: Solanum nigrum (SOLNI), Amaranthus retoflexus (AMARE), Setaria faberi (SETFA), Echinochloa crus-galli (ECHCG), Ipomoea hederacea (IPOHE), Lolium perenne (LOLPE). After cultivation for one day (pre-emergence) under controlled conditions in a glasshouse (at 24/16° C., day/night; 14 hours light; 65% humidity), the plants were sprayed with an aqueous spray solution derived from the formulation of the technical active ingredient in acetone/water (50:50) solution containing 0.5% Tween 20 (polyoxyethelyene sorbitan monolaurate, CAS RN 9005-64-5). Compounds are applied at 250 g/ha. The test plants were then grown in a glasshouse under controlled conditions (at 24/16° C., day/night; 14 hours light; 65% humidity) and watered twice daily. After 13 days, the test is evaluated for the percentage damage caused to the plant. The biological activities are assessed on a five point scale (5=80-100%; 4=60-79%; 3=40-59%; 2=20-39%; 1=0-19%). A blank value in the table is indicative that the compound was not tested on that species.

[8] = test system: Echinochloa crus-galli (ECHCG); test: B3 Pre-Emergence Efficacy Test 1
Protocol: as §2

[9] = test system: Ipomoea hederacea (IPOHE); test: B3 Pre-Emergence Efficacy Test 1
Protocol: as §2

Lolium perenne (LOLPE) [10] = test: B3 Pre-Emergence Efficacy Test 1
Protocol: as §2

Setaria faberi (SETFA) [11] = test: B3 Pre-Emergence Efficacy Test 1
Protocol: as §2

Solanum nigrum (SOLNI) [12] = test: B3 Pre-Emergence Efficacy Test 1
Protocol: as §2

CCc1nc2ccc(CCc3c(Cl)ccc(F)c3-c3c(O)c(C)nn(C)c3=O)cc2o1 [Compound 1.028]
percentage damage caused to the plant, five point scale, AMARE [1]: 5 (5=80-100%)
percentage damage caused to the plant, five point scale, ECHCG [2]: 5 (5=80-100%)
percentage damage caused to the plant, five point scale, IPOHE [3]: 5 (5=80-100%)
percentage damage caused to the plant, five point scale, LOLPE (Lolium perenne (LOLPE) [4]): 5 (5=80-100%)
percentage damage caused to the plant, five point scale, SETFA (Setaria faberi (SETFA) [5]): 5 (5=80-100%)
percentage damage caused to the plant, five point scale, SOLNI (Solanum nigrum (SOLNI) [6]): 5 (5=80-100%)
percentage damage caused to the plant, five point scale, AMARE [7]: 5 (5=80-100%)
percentage damage caused to the plant, five point scale, ECHCG [8]: 1 (1=0-19%)
percentage damage caused to the plant, five point scale, IPOHE [9]: 5 (5=80-100%)
percentage damage caused to the plant, five point scale, LOLPE (Lolium perenne (LOLPE) [10]): 5 (5=80-100%)
percentage damage caused to the plant, five point scale, SETFA (Setaria faberi (SETFA) [11]): 5 (5=80-100%)
percentage damage caused to the plant, five point scale, SOLNI (Solanum nigrum (SOLNI) [12]): 5 (5=80-100%)

Cc1nn(C)c(=O)c(-c2c(F)ccc(Cl)c2CCc2cc(C(F)(F)F)nc3ccccc23)c1O [Compound 1.027]
percentage damage caused to the plant, five point scale, AMARE [1]: 2 (2=20-39%)
percentage damage caused to the plant, five point scale, ECHCG [2]: 4 (4=60-79%)
percentage damage caused to the plant, five point scale, IPOHE [3]: 5 (5=80-100%)
percentage damage caused to the plant, five point scale, LOLPE (Lolium perenne (LOLPE) [4]): 4 (4=60-79%)
percentage damage caused to the plant, five point scale, SETFA (Setaria faberi (SETFA) [5]): 4 (4=60-79%)
percentage damage caused to the plant, five point scale, AMARE [7]: 1 (1=0-19%)
percentage damage caused to the plant, five point scale, ECHCG [8]: 3 (3=40-59%)
percentage damage caused to the plant, five point scale, IPOHE [9]: 3 (3=40-59%)
percentage damage caused to the plant, five point scale, LOLPE (Lolium perenne (LOLPE) [10]): 3 (3=40-59%)
percentage damage caused to the plant, five point scale, SETFA (Setaria faberi (SETFA) [11]): 1 (1=0-19%)
percentage damage caused to the plant, five point scale, SOLNI (Solanum nigrum (SOLNI) [12]): 4 (4=60-79%)

Cc1nn(C)c(=O)c(-c2c(F)ccc(Cl)c2CCc2ccc3c(c2)CCCN3)c1O [Compound 1.019]
percentage damage caused to the plant, five point scale, AMARE [1]: 4 (4=60-79%)
percentage damage caused to the plant, five point scale, ECHCG [2]: 3 (3=40-59%)
percentage damage caused to the plant, five point scale, IPOHE [3]: 5 (5=80-100%)
percentage damage caused to the plant, five point scale, LOLPE (Lolium perenne (LOLPE) [4]): 5 (5=80-100%)
percentage damage caused to the plant, five point scale, SETFA (Setaria faberi (SETFA) [5]): 5 (5=80-100%)
percentage damage caused to the plant, five point scale, SOLNI (Solanum nigrum (SOLNI) [6]): 5 (5=80-100%)
percentage damage caused to the plant, five point scale, AMARE [7]: 5 (5=80-100%)
percentage damage caused to the plant, five point scale, ECHCG [8]: 1 (1=0-19%)
percentage damage caused to the plant, five point scale, IPOHE [9]: 1 (1=0-19%)
percentage damage caused to the plant, five point scale, LOLPE (Lolium perenne (LOLPE) [10]): 3 (3=40-59%)
percentage damage caused to the plant, five point scale, SETFA (Setaria faberi (SETFA) [11]): 4 (4=60-79%)
percentage damage caused to the plant, five point scale, SOLNI (Solanum nigrum (SOLNI) [12]): 5 (5=80-100%)

Cc1nn(C)c(=O)c(-c2c(F)ccc(Cl)c2CCc2ccc3c(c2)CCC(C)N3)c1OC(=O)C(C)C (centres unmarked) [Compound 3.030, [5-[3-chloro-6-fluoro-2-[2-(2-methyl-1,2,3,4-tetrahydroquinolin-6-yl)ethyl]phenyl]-1,3-dimethyl-6-oxo-pyridazin-4-yl] 2-methylpropanoate]
percentage damage caused to the plant, five point scale, AMARE [1]: 5 (5=80-100%)
percentage damage caused to the plant, five point scale, ECHCG [2]: 5 (5=80-100%)
percentage damage caused to the plant, five point scale, IPOHE [3]: 5 (5=80-100%)
percentage damage caused to the plant, five point scale, LOLPE (Lolium perenne (LOLPE) [4]): 5 (5=80-100%)
percentage damage caused to the plant, five point scale, SETFA (Setaria faberi (SETFA) [5]): 5 (5=80-100%)
percentage damage caused to the plant, five point scale, SOLNI (Solanum nigrum (SOLNI) [6]): 5 (5=80-100%)
percentage damage caused to the plant, five point scale, AMARE [7]: 5 (5=80-100%)
percentage damage caused to the plant, five point scale, ECHCG [8]: 5 (5=80-100%)
percentage damage caused to the plant, five point scale, IPOHE [9]: 5 (5=80-100%)
percentage damage caused to the plant, five point scale, LOLPE (Lolium perenne (LOLPE) [10]): 5 (5=80-100%)
percentage damage caused to the plant, five point scale, SETFA (Setaria faberi (SETFA) [11]): 5 (5=80-100%)
percentage damage caused to the plant, five point scale, SOLNI (Solanum nigrum (SOLNI) [12]): 5 (5=80-100%)
